Experimental findings from US11331369B2, “Endoparasitic depsipeptides” (Zoetis Services LLC, priority 2017, dated 2022) are described below.

Holding throughout (assay type): cell-based
The subject of experiment [1] is 4th stage larvae (L4) of Dirofilaria immitis. Description: Dirofilaria immitis, L4 Stage (DiL4) In Vitro Assay. The conditions noted are these: Dirofilaria immitis, 72 h, read-out: DiL4 Minimum Effective Dose (MED), approximately 72 hours incubation; L4 larvae assessed for survival or paralysis.
Experiment [2] deals with third stage larvae of Haemonchus contortus. Description: Haemonchus contortus L3 (HcL3) Assay. The conditions noted are these: 96 h, read-out: HcL3 Minimum Effective Dose (MED).
Experiment [3] deals with microfilariae of Dirofilaria immitis. As to the kind of experiment: Dirofilaria immitis, Microfilaria (DiMF) In vitro Assay. The settings on record: 72 h, read-out: DiMF Minimum Effective Dose (MED), approximately 72 hours incubation, microfilariae assessed for survival or paralysis.

Regarding `CCOc1ccn(Cc2ccc(C[C@H]3OC(=O)[C@H](CC(C)C)N(C)C(=O)[C@@H](C)OC(=O)[C@H](CC(C)C)N(C)C(=O)[C@@H](Cc4ccc(Cn5nccc5OCC)cc4)OC(=O)[C@H](CC(C)C)N(C)C(=O)[C@@H](C)OC(=O)[C@H](CC(C)C)N(C)C3=O)cc2)n1` [Example 1a-36, (3S,6R,9S,12R,15S,18R,21S,24R)-6-(4-((3-ethoxy-1H-pyrazol-1-yl)methyl)benzyl)-18-(4-((5-ethoxy-1H-pyrazol-1-yl)methyl)benzyl)-3,9,15,21-tetraisobutyl-4,10,12,16,22,24-hexamethyl-1,7,13,19-tetraoxa-4,10,16,22-tetraazacyclotetracosan-2,5,8,11,14,17,20,23-octaone], the figures for the minimal effective concentration in experiment [1] and in experiment [2] were 0.0001 to 0.001 µM and 1 to 10 µM, respectively.
The matching figures for `COCc1ccn(Cc2ccc(C[C@H]3OC(=O)[C@H](CC(C)C)N(C)C(=O)[C@@H](C)OC(=O)[C@H](CC(C)C)N(C)C(=O)[C@@H](Cc4ccc(Cn5nccc5COC)cc4)OC(=O)[C@H](CC(C)C)N(C)C(=O)[C@@H](C)OC(=O)[C@H](CC(C)C)N(C)C3=O)cc2)n1` [Example 1a-37, (3S,6R,9S,12R,15S,18R,21S,24R)-3,9,15,21-tetraisobutyl-6-(4-((3-(methoxymethyl)-1H-pyrazol-1-yl)methyl)benzyl)-18-(4-((5-(methoxymethyl)-1H-pyrazol-1-yl)methyl)benzyl)-4,10,12,16,22,24-hexamethyl-1,7,13,19-tetraoxa-4,10,16,22-tetraazacyclotetracosan-2,5,8,11,14,17,20,23-octaone]: 0.0001 to 0.001 µM and 1 to 10 µM.
In the case of `CC(C)C[C@H]1C(=O)O[C@H](Cc2ccc(Cn3cc(C#Cc4ccccc4)cn3)cc2)C(=O)N(C)[C@@H](CC(C)C)C(=O)O[C@H](C)C(=O)N(C)[C@@H](CC(C)C)C(=O)O[C@H](Cc2ccccc2)C(=O)N(C)[C@@H](CC(C)C)C(=O)O[C@H](C)C(=O)N1C` [Example 2-64, (3S,6R,9S,12R,15S,18R,21S,24R)-6-benzyl-3,9,15,21-tetraisobutyl-4,10,12,16,22,24-hexamethyl-18-(4-((4-(phenylethynyl)-1H-pyrazol-1-yl)methyl)benzyl)-1,7,13,19-tetraoxa-4,10,16,22-tetraazacyclotetracosan-2,5,8,11,14,17,20,23-octaone], the minimal effective concentration lay within 0.01 to 0.1 µM in experiment [3] and 0.0001 to 0.001 µM in experiment [1].
Consider `CC#Cc1cnn(Cc2ccc(C[C@H]3OC(=O)[C@H](CC(C)C)N(C)C(=O)[C@@H](C)OC(=O)[C@H](CC(C)C)N(C)C(=O)[C@@H](Cc4ccccc4)OC(=O)[C@H](CC(C)C)N(C)C(=O)[C@@H](C)OC(=O)[C@H](CC(C)C)N(C)C3=O)cc2)c1` [Example 2-76, (3S,6R,9S,12R,15S,18R,21S,24R)-6-benzyl-3,9,15,21-tetraisobutyl-4,10,12,16,22,24-hexamethyl-18-(4-((4-(prop-1-yn-1-yl)-1H-pyrazol-1-yl)methyl)benzyl)-1,7,13,19-tetraoxa-4,10,16,22-tetraazacyclotetracosan-2,5,8,11,14,17,20,23-octaone], for which the minimal effective concentration was 0.001 to 0.01 µM in experiment [3] and 0.0001 to 0.001 µM in experiment [1].
For `CCC#Cc1cnn(Cc2ccc(C[C@H]3OC(=O)[C@H](CC(C)C)N(C)C(=O)[C@@H](C)OC(=O)[C@H](CC(C)C)N(C)C(=O)[C@@H](Cc4ccccc4)OC(=O)[C@H](CC(C)C)N(C)C(=O)[C@@H](C)OC(=O)[C@H](CC(C)C)N(C)C3=O)cc2)c1` [Example 2-77, (3S,6R,9S,12R,15S,18R,21S,24R)-6-benzyl-18-(4-((4-(but-1-yn-1-yl)-1H-pyrazol-1-yl)methyl)benzyl)-3,9,15,21-tetraisobutyl-4,10,12,16,22,24-hexamethyl-1,7,13,19-tetraoxa-4,10,16,22-tetraazacyclotetracosan-2,5,8,11,14,17,20,23-octaone], the minimal effective concentration in experiment [3] lay in the range of 0.001 to 0.01 µM; in experiment [1], 0.0001 to 0.001 µM.
For the molecule `CC(C)C[C@H]1C(=O)O[C@H](Cc2cccc(Cn3cc(Br)cn3)c2)C(=O)N(C)[C@@H](CC(C)C)C(=O)O[C@H](C)C(=O)N(C)[C@@H](CC(C)C)C(=O)O[C@H](Cc2cccc(Cn3cc(Br)cn3)c2)C(=O)N(C)[C@@H](CC(C)C)C(=O)O[C@H](C)C(=O)N1C` [Example 4-2, (3S,6R,9S,12R,15S,18R,21S,24R)-6,18-bis(3-((4-bromo-1H-pyrazol-1-yl)methyl)benzyl)-3,9,15,21-tetraisobutyl-4,10,12,16,22,24-hexamethyl-1,7,13,19-tetraoxa-4,10,16,22-tetraazacyclotetracosan-2,5,8,11,14,17,20,23-octaone], the minimal effective concentration in experiment [3] lay within 0.001 to 0.01 µM; in experiment [1] it was 0.0001 to 0.001 µM.
Take `CC(C)C[C@H]1C(=O)O[C@H](Cc2cccc(Cn3ccnc3Br)c2)C(=O)N(C)[C@@H](CC(C)C)C(=O)O[C@H](C)C(=O)N(C)[C@@H](CC(C)C)C(=O)O[C@H](Cc2ccc(Cn3ccnc3Br)cc2)C(=O)N(C)[C@@H](CC(C)C)C(=O)O[C@H](C)C(=O)N1C` [Example 7-3, (3S,6R,9S,12R,15S,18R,21S,24R)-6-[[3-[(2-bromoimidazol-1-yl)methyl]phenyl]methyl]-18-[[4-[(2-bromoimidazol-1-yl)methyl]phenyl]methyl]-3,9,15,21-tetraisobutyl-4,10,12,16,22,24-hexamethyl-1,7,13,19-tetraoxa-4,10,16,22-tetrazacyclotetracosane-2,5,8,11,14,17,20,23-octaone]: the minimal effective concentration in experiment [3] lay in the range of 0.001 to 0.01 µM; in experiment [1], 0.0001 to 0.001 µM.
Consider `CC(C)C[C@H]1C(=O)O[C@H](Cc2ccc(Cn3ccnc3C(F)(F)F)cc2)C(=O)N(C)[C@@H](CC(C)C)C(=O)O[C@H](C)C(=O)N(C)[C@@H](CC(C)C)C(=O)O[C@H](Cc2ccccc2)C(=O)N(C)[C@@H](CC(C)C)C(=O)O[C@H](C)C(=O)N1C` [Example 8-12, (3S,6R,9S,12R,15S,18R,21S,24R)-6-benzyl-3,9,15,21-tetraisobutyl-4,10,12,16,22,24-hexamethyl-18-(4-((2-(trifluoromethyl)-1H-imidazol-1-yl)methyl)benzyl)-1,7,13,19-tetraoxa-4,10,16,22-tetraazacyclotetracosan-2,5,8,11,14,17,20,23-octaone], for which the minimal effective concentration was 0.001 to 0.01 µM in experiment [3] and 0.0001 to 0.001 µM in experiment [1].
As to `CC(C)C[C@H]1C(=O)O[C@H](Cc2ccc(Cn3ccc(C#N)c3)cc2)C(=O)N(C)[C@@H](CC(C)C)C(=O)O[C@H](C)C(=O)N(C)[C@@H](CC(C)C)C(=O)O[C@H](Cc2ccc(Cn3ccc(C#N)c3)cc2)C(=O)N(C)[C@@H](CC(C)C)C(=O)O[C@H](C)C(=O)N1C` [Example 9-25, 1-[[4-[[(2R,5S,8R,11S,14R,17S,20R,23S)-14-[[4-[(3-cyanopyrrol-1-yl)methyl]phenyl]methyl]-5,11,17,23-tetraisobutyl-4,8,10,16,20,22-hexamethyl-3,6,9,12,15,18,21,24-octaoxo-1,7,13,19-tetraoxa-4,10,16,22-tetrazacyclotetracos-2-yl]methyl]phenyl]methyl]pyrrole-3-carbonitrile], the minimal effective concentration is 0.001 to 0.01 µM in experiment [3] and 0.0001 to 0.001 µM in experiment [1].
The matching figures for `CC(C)C[C@H]1C(=O)O[C@H](Cc2ccc(Cn3ncnc3-c3ccc(Cl)cc3)cc2)C(=O)N(C)[C@@H](CC(C)C)C(=O)O[C@H](C)C(=O)N(C)[C@@H](CC(C)C)C(=O)O[C@H](Cc2ccc(Cn3ncnc3-c3ccc(Cl)cc3)cc2)C(=O)N(C)[C@@H](CC(C)C)C(=O)O[C@H](C)C(=O)N1C` [Example 9-58, (3S,6R,9S,12R,15S,18R,21S,24R)-6,18-bis(4-((5-(4-chlorophenyl)-1H-1,2,4-triazol-1-yl)methyl)benzyl)-3,9,15,21-tetraisobutyl-4,10,12,16,22,24-hexamethyl-1,7,13,19-tetraoxa-4,10,16,22-tetraazacyclotetracosan-2,5,8,11,14,17,20,23-octaone]: 0.01 to 0.1 µM and 0.001 to 0.01 µM.
Taken in the same sequence, the figures for `CC(C)C[C@H]1C(=O)O[C@H](Cc2ccc(CN3C(=O)CSc4cccnc43)cc2)C(=O)N(C)[C@@H](CC(C)C)C(=O)O[C@H](C)C(=O)N(C)[C@@H](CC(C)C)C(=O)O[C@H](Cc2ccc(CN3C(=O)CSc4cccnc43)cc2)C(=O)N(C)[C@@H](CC(C)C)C(=O)O[C@H](C)C(=O)N1C` [Example 9-61, (3S,6R,9S,12R,15S,18R,21S,24R)-3,9,15,21-tetraisobutyl-4,6,10,16,18,22-hexamethyl-12,24-bis[[4-[(3-oxopyrido[3,2-b][1,4]thiazin-4-yl)methyl]phenyl]methyl]-1,7,13,19-tetraoxa-4,10,16,22-tetrazacyclotetracosane-2,5,8,11,14,17,20,23-octaone] were 0.01 to 0.1 µM and 0.001 to 0.01 µM.
For the molecule `CC(C)C[C@H]1C(=O)O[C@H](Cc2ccc(CN3CCOc4ncccc43)cc2)C(=O)N(C)[C@@H](CC(C)C)C(=O)O[C@H](C)C(=O)N(C)[C@@H](CC(C)C)C(=O)O[C@H](Cc2ccccc2)C(=O)N(C)[C@@H](CC(C)C)C(=O)O[C@H](C)C(=O)N1C` [Example 10-38, (3S,6R,9S,12R,15S,18R,21S,24R)-6-benzyl-18-[[4-(2,3-dihydropyrido[2,3-b][1,4]oxazin-1-ylmethyl)phenyl]methyl]-3,9,15,21-tetraisobutyl-4,10,12,16,22,24-hexamethyl-1,7,13,19-tetraoxa-4, 10,16,22-tetrazacyclotetracosane-2,5,8,11,14,17,20,23-octaone], the minimal effective concentration was in the range of 0.001 to 0.01 µM in experiment [3] and 0.0001 to 0.001 µM in experiment [1].
